Laboratory results as given in patent US20060058351A1, “Novel ligands that modulate LXR-type receptors and cosmetic/pharmaceutical applications thereof” (GALDERMA RESEARCH & DEVELOPMENT, S.N.C., priority 2003, published 2006).

These compounds were tested against T1, LXRβ receptor (Gal-hLXRβ-DEF in HG5LN HeLa cells) (Homo sapiens, UniProt P55055) (assay: LXRβ transactivation test (luciferase reporter), determination of Kd apparent by crossover curves against a reference agonist). Conditions: KdA, Affinity for the LXRβ receptor; HG5LN HeLa cells, Gal-hLXRβ-DEF, luciferase.
T1 construct: stably transported with the Gal-hLXRβ-DEF plasmid; expressed in transfected cells; host or cells: HG5LN cells (HeLa stably transfected with the (17mer)5-bGlob-Luc reporter)
T1 sequence (P55055 222-460 limits assumed): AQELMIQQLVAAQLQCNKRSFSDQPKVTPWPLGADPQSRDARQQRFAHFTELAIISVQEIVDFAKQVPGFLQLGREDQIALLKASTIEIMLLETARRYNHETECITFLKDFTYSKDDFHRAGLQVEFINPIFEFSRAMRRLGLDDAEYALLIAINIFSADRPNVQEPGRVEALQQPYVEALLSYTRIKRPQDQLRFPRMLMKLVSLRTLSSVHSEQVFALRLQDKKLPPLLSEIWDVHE
Format: cell-based
Method: This activity on the LXRβ receptors is measured in the transactivation test and quantified by means of the dissociation constant Kdapp (apparent), as described in Example 3.
The activity of the LXRβ receptors is measured in a transactivation test. Activation of the receptors with an agonist (activator) in HeLa cells leads to the expression of a reporter gene, luciferase, which, in the presence of a substrate, generates light. The activation of the receptors may thus be measured by quantifying the luminescence produced after incubating the cells in the presence of a reference agonist. The antagonist products displace the agonist from its site, thus preventing activation of the receptor: there will thus be a reduction in the light produced, which may be quantified. The agonist products are tested alone and their effect is measured by measuring the activation of luminescence after incubation.
Determination of the Kdapp:
In this study, a constant that is the affinity of the molecule for the receptor is determined. Since this value can fluctuate depending on the basal activity and the expression of the receptor, it is known as the Kd apparent (KdApp).
To determine this constant, “crossover curves” of the test product against a reference agonist are produced in a 96-well plate: […] of the test product plus a concentration 0 (in the rows) and 7 concentrations of the agonist plus a 0 concentration (in the columns). This is 88 measurement points for one product and one receptor. The remaining 8 wells are used for the 100% control (total agonist) and 0% control (DMSO).
These crossover curves make it possible to determine the AC50 values (concentration at which 50% activation is observed) of the reference ligand at various concentrations of the test product. These AC50 values are used to calculate the Schild regression by plotting a straight line corresponding to the Schild equation (“quantitation in receptor pharmacology,” Terry P. Kenakin, Receptors and Channels, 2001, 7, 371-385).
In the case of an antagonist, an IC50 value (concentration inhibiting 50% of the activity) is calculated by plotting the curve of the product at the concentration of the reference ligand giving 80% activation.
The cell lines used are HG5LN cells, HeLa cells stably transfected with the (17mer)5-bGlob-Luc reporter and also stably […] with the Gal-hLXRβ-DEF plasmid. These cells are inoculated into 96-well plates at a rate of 10 000 cells per well in 100 μl of DMEM medium free of phenol red and supplemented with 10% defatted calf serum. The plates are then incubated at 37° C. and 7% CO2 for 4 hours.
The various dilutions of the test products, of the reference ligand and of the 100% control (N-(2,2,2-trifluoroethyl)-N-[4-(trifluorohydroxy-trifluoromethylethyl)phenyl]benzenesulfonamide) and of the 0% control (0.2% dimethyl sulfoxide) are added at a rate of 5 μl per well. The plates are then incubated for 18 hours at 37° C. and 7% CO2.
The culture medium is removed by turning over and 100 μl of a 1:1 PBS/luciferine mixture are added to each well. After 5 minutes, the plates are read using a luminescence detector.

Compound	Kd [nM]
CC(=O)C1(c2ccccc2)CCN(C(=O)CNC(=O)c2ccc(C3CCCCC3)cc2)CC1 [Compound 18, N-[2-(4-acetyl-4-phenylpiperidin-1-yl)-2-oxoethyl]-4-cyclohexylbenzamide]	500
CCCC(=O)C1(c2ccccc2)CCN(C(=O)C(C)(C)Oc2ccccc2Cl)CC1 [Compound 47, 1-{1-[2-(2-chlorophenoxy)-2-methylpropionyl]4-phenylpiperidin-4-yl}butan-1-one]	20000
CCCC(=O)C1(c2ccccc2)CCN(C(=O)CNC(=O)c2ccc(C3CCCCC3)cc2)CC1 [Compound 54, N-[2-(4-butyryl-4-phenylpiperidin-1-yl)-2-oxoethyl]-4-cyclohexylbenzamide]	500

Same assay, conditions: KdApp, apparent dissociation constant, Schild regression; LXRβ receptor

Compound	Kd [nM]
CC(=O)C1(c2ccccc2)CCN(C(=O)CNC(=O)c2ccc(C3CCCCC3)cc2)CC1 [Compound 18, N-[2-(4-acetyl-4-phenylpiperidin-1-yl)-2-oxoethyl]-4-cyclohexylbenzamide]	2000
CCCC(=O)C1(c2ccccc2)CCN(C(=O)C(C)(C)Oc2ccccc2Cl)CC1 [Compound 47, 1-{1-[2-(2-chlorophenoxy)-2-methylpropionyl]4-phenylpiperidin-4-yl}butan-1-one]	2000
CCCC(=O)C1(c2ccccc2)CCN(C(=O)CNC(=O)c2ccc(C3CCCCC3)cc2)CC1 [Compound 54, N-[2-(4-butyryl-4-phenylpiperidin-1-yl)-2-oxoethyl]-4-cyclohexylbenzamide]	2000

Same assay, conditions: KdR, Affinity for the LXRβ receptor; HG5LN HeLa cells, Gal-hLXRβ-DEF, luciferase

Compound	Kd [nM]
CC(=O)C1(c2ccccc2)CCN(C(=O)CNC(=O)c2ccc(C3CCCCC3)cc2)CC1 [Compound 18, N-[2-(4-acetyl-4-phenylpiperidin-1-yl)-2-oxoethyl]-4-cyclohexylbenzamide]	2000
CCCC(=O)C1(c2ccccc2)CCN(C(=O)C(C)(C)Oc2ccccc2Cl)CC1 [Compound 47, 1-{1-[2-(2-chlorophenoxy)-2-methylpropionyl]4-phenylpiperidin-4-yl}butan-1-one]	2000
CCCC(=O)C1(c2ccccc2)CCN(C(=O)CNC(=O)c2ccc(C3CCCCC3)cc2)CC1 [Compound 54, N-[2-(4-butyryl-4-phenylpiperidin-1-yl)-2-oxoethyl]-4-cyclohexylbenzamide]	2000

Same assay, conditions: ratio of KdR to KdA

Compound	KdR/KdA
CC(=O)C1(c2ccccc2)CCN(C(=O)CNC(=O)c2ccc(C3CCCCC3)cc2)CC1 [Compound 18, N-[2-(4-acetyl-4-phenylpiperidin-1-yl)-2-oxoethyl]-4-cyclohexylbenzamide]	4
CCCC(=O)C1(c2ccccc2)CCN(C(=O)C(C)(C)Oc2ccccc2Cl)CC1 [Compound 47, 1-{1-[2-(2-chlorophenoxy)-2-methylpropionyl]4-phenylpiperidin-4-yl}butan-1-one]	0.1
CCCC(=O)C1(c2ccccc2)CCN(C(=O)CNC(=O)c2ccc(C3CCCCC3)cc2)CC1 [Compound 54, N-[2-(4-butyryl-4-phenylpiperidin-1-yl)-2-oxoethyl]-4-cyclohexylbenzamide]	4
